Test system: AMPK (pAMPK) in muscle cells (L6 myotube cells)
Assay: AMPK activation in muscle cells (pAMPK western blotting)
Format: cell-based
Method: Therefore, an experiment was conducted to evaluate whether Lactobacillus plantarum-derived vesicles (Lp EV) affect cellular aging through AMPK activation in cells. To evaluate AMPK activation according to a concentration of treated Lactobacillus plantarum-derived vesicles in vitro, muscle cells (L6 myotube cells) were treated with the Lactobacillus plantarum-derived vesicles at 0, 0.1, 1, or 10 μg/mL for 1 hour. As a control, insulin (1 μM), which promotes aging and metformin (50 mM), which inhibits aging were used. After treating the cells with the drug, the difference in the amount of pAMPK, which is a key indicator in AMPK signaling, was measured through western blotting. […] To perform BCA quantitative analysis, the 1.5 mL microtube containing 5 μL of the lysed sample supernatant was taken out at room temperature, 20 μL of sterile distilled water was added thereto, and the resulting solution was vortexed and then spun down. […] After reacting in a 37° C. incubator for 30 minutes, absorbance was measured at 562 nm using a SpectraMax M3 microplate reader (Molecular Devices, USA). For western blotting, in the process of tris-glycine SDS-polyacrylamide gel electrophoresis, a 10% gel was prepared, and 50 μg of a protein for each sample was quantified and loaded. […]

| Compound | phosphorylation of AMPK (pAMPK) (metformin 50 mM for 1 hour (FIG. 8)) | phosphorylation of AMPK (pAMPK) (insulin 1 μM for 1 hour (FIG. 8)) |
| --- | --- | --- |
| CN(C)C(=N)N=C(N)N [metformin] | increased |  |
| insulin |  | inhibited |

From patent US20240261348A1, “LACTOBACILLUS PLANTARUM-DERIVED VESICLE AND USE THEREOF” (priority 2021, published 2024)
